Data taken from patent publication US11207301B2, “Sphingosine 1 phosphate receptor agonists for neuroprotection” (RECEPTOS LLC, priority 2017, dated 2021).

How the values were obtained:
Assay type in all cases: cell-based
[1] = system: AKT phosphorylation in primary rat astrocytes; experiment: AKT phosphorylation in primary rat astrocytes (MSD pAKT assay); conditions: 10-minute exposure, mean of n=4
Experimental: (§1) For the experiments using rat primary astrocytes, eight-point concentration-response curves were generated for AKT and ERK phosphorylation in primary rat astrocytes cultures in response to a 10-minute treatment with ozanimod (100 nM-46 pM), Compound 3 (10 nM-5 pM), Compound 1 (10 nM-5 pM), or FTY720-P (10 nM-5 pM). Phosphorylation of AKT and ERK was quantified using Meso Scale Discovery assay kits (MSD Mutli-Spot Phopho-AKT (Ser473) Assay Kit and MSD Multi-Spot MAP Kinase Phosphoprotein Assay Whole Cell Lysate Kit) and imaging platform. AKT and ERK phosphorylation within treated astrocytes were assessed as the mean change in signal intensity compared to DMSO vehicle and the half maximal effective concentration (EC50) was determined using non-linear regression.
(§2) Embryonic day18 (E18) rat cortices were purchased from BrainBits LLC. (Springfield, Ill.) and were cultured according to the supplier's protocol. Briefly, cortices were incubated at 37° C. for 10 minutes in activated papain solution before trituration in hibernation medium containing B27 supplement using a modified siliconized glass Pasteur pipette. The cell suspension was centrifuged at 1100×g for 1 minute at room temperature (RT). The cell pellet was then resuspended in NbAstro medium (BrainBits LLC.) and the live cell density was assessed using a cell counter. Primary cells were plated at a density of 7500 cells/cm2 in T75 tissue culture flasks coated with poly-D-lysine (PDL) in a total volume of 12 mL of NbAstro media, and incubated for 10-14 days at 37° C. 5% CO2. After 10-14 days, primary astrocytes in passage 0 (P0) that had reached confluency in the T75 flasks were detached using TrypLE detachment reagent, pelleted at 300×g, and plated into poly-d-lysine coated T225 flasks in 20 mL of NbAstro media, and incubated for another 7 days at 37° C. 5% CO2. After 7 days, primary P1 astrocytes in confluent T225 flasks were detached using TrypLE detachment reagent, pelleted at 300×g, and plated intopoly-d-lysine coated 96-well plates at 10,000 cells per well in 200 μL of NbAstro media, and incubated for 7 days at 37° C. 5% CO2. After 7 days, P2 primary astrocytes were utilized for pAKT and pERK assays.
(§3) The pAKT (phosphorylated AKT) assay was performed according to the manufacturer's protocol. Briefly, MSD pAKT plates were blocked for 1-2 hours by adding 150 μL of blocker A prepared in 1× Tris wash buffer. […] Following antibody incubation, plates were washed three times with 150 μL of 1× Tris wash buffer and 1× read buffer (150 μL/well) was added. Finally, plates were read in the MSD imager platform to assess pAKT levels.
(§4) AKT and ERK phosphorylation data were analyzed by non-linear regression (GraphPad Prism, version 6) to determine the EC50 values.

[2] = system: ERK phosphorylation in primary rat astrocytes; experiment: ERK phosphorylation in primary rat astrocytes (MSD pERK assay); conditions: 10-minute exposure, mean of n=3
Experimental: as §1, §2
as §3, with “The pERK” for “The pAKT”, “(phosphorylated ERK)/pMAPkinase” for “(phosphorylated AKT)”, “MSD pERK/pMAPkinase” for “MSD pAKT”, “Finally, the” for “Finally,”, “assess the pERK” for “assess pAKT”
as §4

[3] = system: AKT phosphorylation in primary mouse astrocytes; experiment: AKT phosphorylation in primary mouse cortical astrocytes (AlphaLISA SureFire Ultra); conditions: 10-minute exposure, mean of n=3
Experimental: (§5) For the experiments using mouse and human primary astrocytes, ten-point concentration-response curves (90 nM-4.57 pM or 30 nM-1.52 pM) were generated for AKT and/or ERK phosphorylation in primary human and mouse cortical astrocytic cultures in response to a 10-minute treatment with ozanimod, Compound 3, Compound 1, or FTY720-P. AKT and ERK phosphorylation were quantified using AlphaLISA SureFire Ultra Assay kits and the EnVision Plate Reader. AKT and ERK phosphorylation within treated astrocytes were expressed as the mean change in signal intensity compared to the dimethyl sulfoxide (DMSO) vehicle and the half maximal effective concentration (EC50) was determined using non-linear regression.
(§6) Timed pregnant (E16) C57BL/6J female mice arrive to the test facility on a weekly basis and were housed and cared for according to appropriate protocols for this model. Primary mouse cortical astrocytes are harvested from P0-P2 pups. The newly born animals were deeply anesthetized on ice, decapitated, and the brains were rapidly removed and stored in ice-cold NbAstro media (BrainBits, LLC). Cells were dissociated from freshly dissected cortices by mechanical disruption in the presence of trypsin and DNase. Cells were put into a PDL coated T75 tissue culture flask containing 16 mL NbAstro Media and incubated at 37° C. 5% CO2. Once the mouse astrocytes had reached confluency in the T75 flask, they were detached using TripLE detachment reagent, pelleted at 300×g, expanded into two T225 PDL coated tissue culture flasks containing 40 mL of NbAstro and incubated at 37° C. 5% CO2. Once the astrocytes reached confluency in the T225 flasks they were detached using TrypLE detachment reagent, pelleted at 300×g, plated into PDL coated 96-well plates at a density of 10,000 cells per well in 200 μL NbAstro and incubated at 37° C. 5% CO2. Half of the media was replenished every 3-4 days. After 5-7 days of incubation, the P2 mouse astrocyte plates were utilized for the pERK and pAKT assays.
Cell lysis and detection of pAKT were performed according to the PerkinElmer AlphaLISA SureFire Ultra pAKT1/2/3 ([…]) assay protocol. Astrocytes were lysed in the 96-well plate following a 10 minute incubation with compounds with shaking at room temperature (RT). The astrocytic lysates (10 μL/well) were transferred into a 384-well OptiPlate. As specified by the assay protocol, an acceptor bead mix and a donor bead mix (5 μL/well for each) were added to the plate under subdued light. […] The plates were read on the EnVision Plate Reader to assess the pAKT levels.
(§7) The AKT and ERK phosphorylation data, collected by a Perkin Elmer EnVision Microplate Reader, was analyzed by non-linear regression (GraphPad Prism, version 7.03) to determine the EC50 values.

[4] = system: ERK phosphorylation in primary mouse astrocytes; experiment: ERK phosphorylation in primary mouse cortical astrocytes (AlphaLISA SureFire Ultra); conditions: 10-minute exposure
Experimental: as §5
as §6, with “Once the astrocytes reached confluency in the T225 flasks they were detached using TrypLE detachment reagent, pelleted at 300×g, plated into PDL coated 96-well plates at a density of 10,000 cells per well in 200 μL NbAstro and incubated at 37° C. 5% CO2. Half of the media was replenished every 3-4 days. After 5-7 days of incubation, the P2 mouse astrocyte plates were utilized for the pERK and pAKT assays.” left out
Cell lysis and detection of pERK were performed according to the PerkinElmer AlphaLISA SureFire Ultra p-ERK1/2 (Thr202/TYR 204) assay protocol. […] The plates were read on the EnVision Plate Reader to assess the pERK levels.
as §7

[5] = system: ERK phosphorylation in primary human astrocytes; experiment: ERK phosphorylation in primary human cortical astrocytes (AlphaLISA SureFire Ultra); conditions: 10-minute exposure, n=3-5
Experimental: as §5
Primary human astrocytes were purchased from ScienCell Research Laboratories, Inc. and cultured according to the supplier's protocol. The astrocytes were obtained from the human cerebral cortex, cryopreserved at passage one, and delivered frozen. The frozen vials of cells were gently thawed in a 37° C. water bath. Once the contents of the vial were completely thawed, the cell solution was dispensed into a poly-L-lysine (PLL) coated T75 tissue culture flask with 16 mL of human Astrocyte Media, (ScienCell Research Laboratories, Inc.) and incubated at 37° C. 5% CO2. Once the human astrocytes had reached confluency in the T75 flask, they were detached using trypsin/EDTA 0.25%, pelleted at 300×g, split into two PLL coated T225 tissue culture flasks in 40 mL of astrocyte media, and incubated at 37° C. 5% CO2. Once the astrocytes reached confluency in the T225 flasks, they were detached using trypsin/EDTA 0.25% solution, pelleted at 300×g, plated into poly-D-lysine (PDL) coated 96-well plates at a density of 10,000 cells per well in 200 μL human Astrocyte Media, and incubated at 37° C. 5% CO2. Half of the media was replenished every 3-4 days. After 5-7 days of incubation, the P2 human astrocyte plates were utilized for the pERK and pAKT assays.
Cell lysis and detection of pERK were performed according to the PerkinElmer AlphaLISA SureFire Ultra p-ERK1/2 (Thr202/TYR 204) assay protocol. Astrocytes were lysed in the 96-well plate following a 10 minute incubation with compounds with shaking at RT. The astrocytic lysates (10 μL/well) were transferred into a 384-well OptiPlate. As specified by the assay protocol, an acceptor bead mix and a donor bead mix (5 μL/well for each) were added to the plate under subdued light. Plates were sealed with adhesive plate seals and incubated in the dark for 2 hours at RT. The plates were read on the EnVision Plate Reader to assess the pERK levels.
as §7

## CCCCCCCCc1ccc(CC[C@](N)(CO)COP(=O)(O)O)cc1 [FTY720-P, reference compound]
[1]
  EC50: 170 pM
[2]
  EC50: 160 pM
[3]
  EC50: 90 pM
[4]
  EC50: 140 pM
[5]
  EC50: 730 pM
